Laboratory results taken from patent publication US20090176817A1, “Method of Treatment of Diarrhea-Predominant Irritable Bowel Syndrome in a Subject” (priority 2005, published 2009).

Tested on: diarrhea-predominant IBS subjects
Experiment: Study S241.3.009: weekly diary questions on adequate relief
Format: in vivo, human
Settings: for Overall responder rate, IBS symptoms / Overall responder rate, abdominal pain/discomfort / Overall responder rate, abnormal bowel habits: 26 weeks
Procedure: Study S241.3.009 was a Phase III, a double-blind, placebo-controlled, randomized, multinational study to investigate the safety and efficacy of 2 mg TID of cilansetron over 26 weeks in diarrhea-predominant IBS subjects. The study was conducted in 146 multinational study centers. A total of 1307 subjects consented to participate, and 806 subjects were randomized. A total of 792 subjects were analyzed for efficacy and 799 subjects were analyzed for safety. Diagnosis and main criteria for inclusion were IBS subjects satisfying the Rome I criteria (1992); the diarrhea-predominant sub-population of the Rome II criteria; and a minimum abdominal pain/discomfort, stool frequency and consistency determined during the run-in period. Subjects were treated with cilansetron 2 mg tablets given orally TID or matching placebo tablets given orally TID for 26 weeks.
The primary efficacy parameter was the overall response rate for IBS symptoms, based on the weekly question concerning adequate relief of IBS symptoms (abdominal pain/discomfort, abnormal bowel habits) over the 26 weeks period. A responder was a subject who responded “yes” at least 50% of the time during his/her treatment period, with minimum treatment duration of four weeks. The two main secondary efficacy parameters were overall responder rate based on the weekly question on adequate relief of abdominal pain/discomfort and abnormal bowel habits during the 26-week treatment period. The onset of action of cilansetron was also examined using daily diary data (stool frequency, and ratings of urgency and severity) during the initial 8 weeks of trial participation. An additional key secondary efficacy parameter was the number of months (one month equals four weeks) up to six months (24-weeks) that a subject was a responder for IBS symptoms, where a responder was defined as a subject who answered the weekly question with “yes” at least twice for that month. The responder rate for the weekly diary questions on adequate relief at each month and all months, the adequate relief rate, the number of subjects with adequate relief by week, daily diary questions, IBS-QOL scores, and the interruption of activities were also assessed. Safety was evaluated by physical examination, ECG, vital signs, laboratory evaluations, concomitant medications, and AEs.
Studies S24 1.3.OO6, S24 1.3.0 1 1, and S24 1.3.009 used the following efficacy measurements: • The subjects answered the following three questions with “yes” or “no” using a phone diary at the end of each week: • a) During the last week, did you experience adequate relief of your IBS symptoms, such as abdominal pain, abdominal discomfort, abnormal bowel habits? • b) During the last week, did you experience adequate relief of your abdominal pain and/or discomfort? • c) During the last week, did you experience adequate relief of your abnormal bowel habits? • The subjects rated the following symptoms using the phone diary at the end of each day: • abdominal pain/discomfort (five-point scale); • stool consistency (seven-point Bristol Stool Scale); • stool frequency (number of bowel movements each day); • urgency (five-point scale); • straining (yes or no); • feeling of incomplete defecation (yes or no); • bloating or feeling of abdominal distension (five-point scale). • In Studies S241 A006 and S241.3.009, subjects completed the IBS-QOL Survey at Baseline (Day 1) and at the end of treatment. In Study S24 1.3.0 1 1, subjects completed the IBS-QOL Survey at Baseline (Day 1), at the end of the three-month treatment period, and at the end of rerandomized treatment.
In all three pivotal efficacy studies, the primary and main secondary efficacy parameters were based on the weekly diary questions on adequate relief and included the following: • 1. Number of months (one month equals four weeks) that a subject was a responder for the weekly diary questions on adequate relief. […]

[1] = 2 mg TID, 26-week treatment period, observed case, ITT N = 395
[2] = 2 mg TID, Months 1 to 3, monthly LOCF, ITT N = 395
[3] = 2 mg TID, Months 1 to 3, observed case, ITT N = 395
[4] = 2 mg TID, Months 1 to 6, monthly LOCF, ITT N = 395
[5] = Baseline BMI: <30 kg/m^2, 26-week treatment period, observed case, ITT, 2 mg TID
[6] = Baseline BMI: <30 kg/m^2, Months 1 to 3, monthly LOCF, ITT, 2 mg TID

Cc1nccn1C[C@H]1CCc2c(c3cccc4c3n2CCC4)C1=O [Cilansetron, (R)-(−)-4,5,6,8,9,10-hexahydro-10-[(2-methyl-1H-imidazol-1-yl)methyl]-11H-pyrido-[3,2,1-jk]-carbazol-11-one]
Overall responder rate, adequate relief of IBS symptoms [1]: 234 (59) n (%)
Overall responder rate, adequate relief of abdominal pain/discomfort [1]: 239 (61) n (%)
Overall responder rate, adequate relief of abnormal bowel habits [1]: 253 (64) n (%)
Subjects who were responders for One month, Abdominal pain/discomfort [2]: 61 (15) n (%)
Subjects who were responders for One month, Abnormal bowel habits [2]: 49 (12) n (%)
Subjects who were responders for One month, IBS symptoms [2]: 55 (14) n (%)
Subjects who were responders for Three months, Abdominal pain/discomfort [2]: 159 (40) n (%)
Subjects who were responders for Three months, Abnormal bowel habits [2]: 165 (42) n (%)
Subjects who were responders for Three months, IBS symptoms [2]: 150 (38) n (%)
Subjects who were responders for Two months, Abdominal pain/discomfort [2]: 70 (18) n (%)
Subjects who were responders for Two months, Abnormal bowel habits [2]: 83 (21) n (%)
Subjects who were responders for Two months, IBS symptoms [2]: 80 (20) n (%)
Subjects who were responders for Zero months, Abdominal pain/discomfort [2]: 105 (27) n (%)
Subjects who were responders for Zero months, Abnormal bowel habits [2]: 98 (25) n (%)
Subjects who were responders for Zero months, IBS symptoms [2]: 110 (28) n (%)
Overall responder rate, adequate relief of IBS symptoms [3]: 219 (55) n (%)
Overall responder rate, adequate relief of abdominal pain/discomfort [3]: 221 (56) n (%)
Overall responder rate, adequate relief of abnormal bowel habits [3]: 243 (62) n (%)
Subjects who were responders for Five months, Abdominal pain/discomfort [4]: 53 (13) n (%)
Subjects who were responders for Five months, Abnormal bowel habits [4]: 61 (15) n (%)
Subjects who were responders for Five months, IBS symptoms [4]: 58 (15) n (%)
Subjects who were responders for Four months, Abdominal pain/discomfort [4]: 41 (10) n (%)
Subjects who were responders for Four months, Abnormal bowel habits [4]: 41 (10) n (%)
Subjects who were responders for Four months, IBS symptoms [4]: 52 (13) n (%)
Subjects who were responders for One month, Abdominal pain/discomfort [4]: 26 (7) n (%)
Subjects who were responders for One month, Abnormal bowel habits [4]: 17 (4) n (%)
Subjects who were responders for One month, IBS symptoms [4]: 25 (6) n (%)
Subjects who were responders for Six months, Abdominal pain/discomfort [4]: 133 (34) n (%)
Subjects who were responders for Six months, Abnormal bowel habits [4]: 136 (34) n (%)
Subjects who were responders for Six months, IBS symptoms [4]: 121 (31) n (%)
Subjects who were responders for Three months, Abdominal pain/discomfort [4]: 31 (8) n (%)
Subjects who were responders for Three months, Abnormal bowel habits [4]: 33 (8) n (%)
Subjects who were responders for Three months, IBS symptoms [4]: 25 (6) n (%)
Subjects who were responders for Two months, Abdominal pain/discomfort [4]: 26 (7) n (%)
Subjects who were responders for Two months, Abnormal bowel habits [4]: 22 (6) n (%)
Subjects who were responders for Two months, IBS symptoms [4]: 24 (6) n (%)
Subjects who were responders for Zero months, Abdominal pain/discomfort [4]: 85 (22) n (%)
Subjects who were responders for Zero months, Abnormal bowel habits [4]: 85 (22) n (%)
Subjects who were responders for Zero months, IBS symptoms [4]: 90 (23) n (%)
Overall responder rate, IBS symptoms (females): 63%
Overall responder rate, abdominal pain/discomfort (females): 64%
Overall responder rate, abnormal bowel habits (females): 67%
Overall responder rate, IBS symptoms (males): 55%
Overall responder rate, abdominal pain/discomfort (males): 57%
Overall responder rate, abnormal bowel habits (males): 60%
Overall responder rate, abdominal pain/discomfort (observed case): 61%
Overall responder rate, abnormal bowel habits (observed case): 64%
Overall responder rate, IBS symptoms (observed case, ITT): 59%
Overall responder rate, IBS symptoms (weekly LOCF): 60%
Overall responder rate, abdominal pain/discomfort (weekly LOCF): 61%
Overall responder rate, abnormal bowel habits (weekly LOCF): 63%
Overall responder rate difference vs placebo across diary questions (BMI≧30 kg/m^2): −10% to −1
Overall responder rate, adequate relief of IBS symptoms [5]: 207 (63) n (%)
Overall responder rate, adequate relief of abdominal pain/discomfort [5]: 207 (63) n (%)
Overall responder rate, adequate relief of abnormal bowel habits [5]: 220 (67) n (%)
Number of months a subject was a responder: One month (Abdominal pain/discomfort) [6]: 51 (15) n (%)
Number of months a subject was a responder: One month (Abnormal bowel habits) [6]: 39 (12) n (%)
Number of months a subject was a responder: One month (IBS symptoms) [6]: 49 (15) n (%)
Number of months a subject was a responder: Three months (Abdominal pain/discomfort) [6]: 139 (42) n (%)
Number of months a subject was a responder: Three months (Abnormal bowel habits) [6]: 144 (44) n (%)
